The subject of one assay is 24-HC in the brain. Kind of assay: Quantification test of 24-HC in mouse brain after repeated oral administration. Format: in vivo. The following applies: 30 mg/kg orally once a day for 3 days, female C57BL/6N mice, brain 24-HC at 16 hours after the third administration, relative to control group, read-out: Decreasing Rate in 30 mg/kg (%). The protocol: Animals used were 6-week-old female C57BL/6N mice (3 mice/group). A test compound was suspended in a 0.5% aqueous methylcellulose [133-14255 WAKO] solution (1 mg/mL). The body weight of the mice was measured, and the solution was forcibly administered orally and repeatedly once a day for 3 days. At 16 hours after the third administration, half of the brain was harvested, and the amount of 24-HC was measured.
The wet weight of the brain was measured, and the brain was homogenized with 4-fold amount of saline. This solution was used as a brain extract. The 24-HC in the brain extract was extracted with an acetonitrile solution (98% acetonitrile, 1.98% methanol, 0.02% formic acid), and quantified by HPLC. The average value of 24-HC amount was calculated and the results are shown in relative values with the control group as 100%.

The next assay deals with T1, human CH24H (Homo sapiens, UniProt Q9Y6A2).
T1 construct: Using Full-Length Mammalian Gene Collection No. 4819975 (Invitrogen) as a template; made in house; host or cells: FreeStyle 293-F cells, transient transfection with pcDNA3.1(+)/hCH24H; lysate supernatant, not purified
T1 sequence (Q9Y6A2 whole entry): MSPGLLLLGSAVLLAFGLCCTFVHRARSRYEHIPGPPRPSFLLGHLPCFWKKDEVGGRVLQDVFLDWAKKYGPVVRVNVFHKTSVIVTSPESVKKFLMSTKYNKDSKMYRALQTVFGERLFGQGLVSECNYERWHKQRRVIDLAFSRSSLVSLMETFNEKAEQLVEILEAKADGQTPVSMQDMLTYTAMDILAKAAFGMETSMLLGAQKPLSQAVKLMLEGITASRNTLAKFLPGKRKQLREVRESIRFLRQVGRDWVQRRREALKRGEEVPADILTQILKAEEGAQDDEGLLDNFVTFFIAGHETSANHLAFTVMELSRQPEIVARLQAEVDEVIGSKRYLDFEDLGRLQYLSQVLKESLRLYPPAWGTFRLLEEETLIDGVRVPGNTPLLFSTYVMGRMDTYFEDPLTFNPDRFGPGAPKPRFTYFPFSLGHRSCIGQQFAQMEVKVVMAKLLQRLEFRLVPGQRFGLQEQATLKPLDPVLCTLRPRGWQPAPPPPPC
Nature of the assay: Measurement of CH24H inhibitory activity (24-HC produced from [14C] cholesterol by human CH24H lysate). Type of assay: biochemical. The following applies: 1 μM test compound, [14C] cholesterol 15 μM, 37° C. for 5 hr, read-out: Inhibitory Rate in 1 μM (%). The protocol:
The expression of human CH24H was performed using FreeStyle 293 Expression System (Invitrogen). […] After transfection, the cells were cultured at 37° C., 8% CO2 with shaking at 125 rpm for 2 days. The cells were collected by centrifugation, and suspended in a suspension buffer (100 mM potassium phosphate (pH 7.4), 0.1 mM EDTA, 1 mM DTT, 20% Glycerol). The suspended product was disrupted by a polytron homogenizer (manufactured by Kinematica), and centrifuged at 9000×g for 10 min, and the supernatant was collected. The collected supernatant was cryopreserved (−80° C.) as a human CH24H lysate standard product.
For the measurement of CH24H inhibitory activity, using the human CH24H lysate prepared in Experimental Example 2, the amount of 24-HC produced from cholesterol by catalytic activity of CH24H was measured in the presence of a test compound, and compared with that measured in the absence of the test compound. That is, a test compound solution at various concentrations was mixed with a reaction buffer (50 mM potassium phosphate containing 0.1% BSA and Complete, EDTA-free, pH 7.4) and human CH24H lysate. Then, [^14C] cholesterol (53 mCi/mmol specific activity, 15 μM) was added, and CH24H reaction was performed at 37° C. for 5 hr. After completion of the reaction, a quenching solution consisting of chloroform/methanol/distilled water (2:2:1 v/v) was added, and the resulting 24-HC was extracted by shaking. The extract was applied to silica gel thin layer chromatography (ethyl acetate:toluene=4:6), and the obtained ^14C-24HC fraction was measured with BAS2500 (Fujifilm Corporation).
The inhibitory rate (%) was calculated from the ratio of radioactivity in the presence of a test compound relative to the radioactivity in the absence of the test compound.

SMILES strings stand for the structures.

On to `Cc1cnn(-c2ccncc2N2CCC(C(=O)N3CCC[C@@H]3C(N)=O)CC2)c1` [Example 124, 1-((1-(4-(4-methyl-1H-pyrazol-1-yl)pyridin-3-yl)piperidin-4-yl)carbonyl)-D-prolinamide], for which the inhibition in vivo at 30 mg/kg in the assay on 24-HC in the brain is 59%. In addition, the inhibition at 1 µM on human CH24H was 81%.

Turning to `N#C[C@H]1CCCN1C(=O)C1CCN(c2cnccc2-n2cc(Cl)cn2)CC1` [Example 33, (2R)-1-((1-(4-(4-chloro-1H-pyrazol-1-yl)pyridin-3-yl)piperidin-4-yl)carbonyl)pyrrolidine-2-carbonitrile], the inhibition in vivo at 30 mg/kg in the assay with 24-HC in the brain came out at 49%. The inhibition at 1 µM on human CH24H is 96%. Consider `Cc1nnc(-c2ccncc2N2CCC(C(=O)N3CC(F)(F)C[C@@H]3C#N)CC2)s1` [Example 132, (2R)-4,4-difluoro-1-((1-(4-(5-methyl-1,3,4-thiadiazol-2-yl)pyridin-3-yl)piperidin-4-yl)carbonyl)pyrrolidine-2-carbonitrile], for which the inhibition in vivo at 30 mg/kg in the assay on 24-HC in the brain came out at 65%. In addition, on human CH24H, the inhibition at 1 µM came out at 87%. The matching figures for `N#C[C@H]1CCCN1C(=O)C1CCN(c2cnccc2-c2ccccn2)CC1` [Example 142, (2R)-1-((1-(2,4′-bipyridine-3′-yl)piperidin-4-yl)carbonyl)pyrrolidine-2-carbonitrile]: 69% and 93%. Take `Cc1cnn(-c2ccncc2N2CCC(C(=O)N3CC(F)(F)C[C@H]3C#N)CC2)c1` [Example 121, (2S)-4,4-difluoro-1-((1-(4-(4-methyl-1H-pyrazol-1-yl)pyridin-3-yl)piperidin-4-yl)carbonyl)pyrrolidine-2-carbonitrile]: the inhibition at 1 µM at human CH24H turned out to be 80%. The same measure, in the same setting: the value for `CO[C@H]1CCN(C(=O)C2CCN(c3cnccc3-n3cc(Cl)cn3)CC2)C1` [Example 299, (1-(4-(4-chloro-1H-pyrazol-1-yl)pyridin-3-yl)piperidin-4-yl)((3S)-3-methoxypyrrolidin-1-yl)methanone] was 84%; that for `O=C(C1CCN(c2cnccc2-n2cc(Br)cn2)CC1)N1CC[C@H](F)C1` [Example 318, (1-(4-(4-bromo-1H-pyrazol-1-yl)pyridin-3-yl)piperidin-4-yl)((3S)-3-fluoropyrrolidin-1-yl)methanone] was 94%; that for `CN(C)C(=O)C1CCN(c2cnccc2-c2nc3ccccc3s2)CC1` [Example 21, 1-(4-(1,3-benzothiazol-2-yl)pyridin-3-yl)-N,N-dimethylpiperidine-4-carboxamide] was 85%. As to `Cc1cnn(-c2ccncc2N2CCC(C(=O)N(C)[C@@H]3CCOC3)CC2)c1` [Example 306, N-methyl-1-(4-(4-methyl-1H-pyrazol-1-yl)pyridin-3-yl)-N-((3R)-tetrahydrofuran-3-yl)piperidine-4-carboxamide], the inhibition at 1 µM on human CH24H came to 85%. The same measure, in the same setting: the value for `O=C(C1CCN(c2cnccc2-n2cc(Cl)cn2)CC1)N1CC[C@@H](F)C1` [Example 285, (1-(4-(4-chloro-1H-pyrazol-1-yl)pyridin-3-yl)piperidin-4-yl)((3R)-3-fluoropyrrolidin-1-yl)methanone] was 82%; that for `O=C(NC1CCOCC1)C1CCN(c2cnccc2-n2cc(Cl)cn2)CC1` [Example 24, 1-(4-(4-chloro-1H-pyrazol-1-yl)pyridin-3-yl)-N-(tetrahydro-2H-pyran-4-yl)piperidine-4-carboxamide] was 96%; that for `O=C(CC1CC1)N1C[C@@H]2C[C@H]1CN2c1cnccc1-c1ccccc1` [Example 161, 2-cyclopropyl-1-((1S,4S)-5-(4-phenylpyridin-3-yl)-2,5-diazabicyclo[2.2.1]hept-2-yl) ethanone] was 56%. On the same count and under the same terms, for `O=C(C1CCN(c2cncnc2-c2ccc(F)cc2)CC1)N1CC(F)C1` [Example 278, (3-fluoroazetidin-1-yl)(1-(4-(4-fluorophenyl)pyrimidin-5-yl)piperidin-4-yl)methanone] the value was 75%. The same measure, in the same setting: the value for `O=C(C1CCN(c2cnccc2-n2cc(Br)cn2)CC1)N1CC(F)C1` [Example 319, (1-(4-(4-bromo-1H-pyrazol-1-yl)pyridin-3-yl)piperidin-4-yl) (3-fluoroazetidin-1-yl)methanone] was 96%; that for `O=C(C1CCN(c2cnccc2-n2cc(Cl)cn2)CC1)N1CC(F)C1` [Example 281, (1-(4-(4-chloro-1H-pyrazol-1-yl)pyridin-3-yl)piperidin-4-yl) (3-fluoroazetidin-1-yl)methanone] was 84%; that for `C[C@H]1CN(c2cncnc2-c2ccccc2)CCN1C(=O)CC1CC1` [Example 170, 2-cyclopropyl-1-((2S)-2-methyl-4-(4-phenylpyrimidin-5-yl)piperazin-1-yl)ethanone] was 86%. With `Cc1cnn(-c2ccncc2N2CCN(C(=O)N(CCF)Cc3ccc(F)cc3)CC2)c1` [Example 315, N-(4-fluorobenzyl)-N-(2-fluoroethyl)-4-(4-(4-methyl-1H-pyrazol-1-yl)pyridin-3-yl)piperazine-1-carboxamide], the inhibition at 1 µM on human CH24H came out at 94%. Same read-out and setting: the value for `CO[C@@H]1CCN(C(=O)C2CCN(c3cnccc3-n3cc(Cl)cn3)CC2)C1` [Example 300, (1-(4-(4-chloro-1H-pyrazol-1-yl)pyridin-3-yl)piperidin-4-yl)((3R)-3-methoxypyrrolidin-1-yl)methanone] was 83%; that for `O=C(C1CCN(c2cnccc2-n2cc(Cl)cn2)CC1)N1C2COCC1C2` [Example 35, (1-(4-(4-chloro-1H-pyrazol-1-yl)pyridin-3-yl)piperidin-4-yl)(3-oxa-6-azabicyclo[3.1.1]hept-6-yl)methanone] was 98%. With `CN(C(=O)C1CCN(c2cnccc2-n2cc(Cl)cn2)CC1)C1CC1` [Example 58, 1-(4-(4-chloro-1H-pyrazol-1-yl)pyridin-3-yl)-N-cyclopropyl-N-methylpiperidine-4-carboxamide], the inhibition at 1 µM at human CH24H was found to be 96%. The same measure, in the same setting: the value for `Cc1ccc(-c2ccncc2N2CCN(C(=O)CC3CC3)CC2)cc1` [Example 148, 2-cyclopropyl-1-(4-(4-(4-methylphenyl)pyridin-3-yl)piperazin-1-yl)ethanone] was 92%; that for `CO[C@H]1CCN(C(=O)C2CCN(c3cncnc3-c3ccc(F)cc3)CC2)C1` [Example 303, (1-(4-(4-fluorophenyl)pyrimidin-5-yl)piperidin-4-yl)((3S)-3-methoxypyrrolidin-1-yl)methanone] was 85%.

`O=C(NC1CCCC1)C1CCN(c2cnccc2-n2cc(Cl)cn2)CC1(F)F` (centres unmarked) [Example 38, 1-(4-(4-chloro-1H-pyrazol-1-yl)pyridin-3-yl)-N-cyclopentyl-3,3-difluoropiperidine-4-carboxamide]: the inhibition at 1 µM on human CH24H turned out to be 98%. Still for that read-out and setting: for `Cc1cnn(-c2ccncc2N2CCC(C(=O)N(CCF)[C@@H]3CCOC3)CC2)c1` [Example 313, N-(2-fluoroethyl)-1-(4-(4-methyl-1H-pyrazol-1-yl)pyridin-3-yl)-N-((3R)-tetrahydrofuran-3-yl)piperidine-4-carboxamide] the value was 82%; for `Cc1cnn(-c2ccncc2N2CCC(C(=O)N(CCF)C3CCOCC3)CC2)c1` [Example 311, N-(2-fluoroethyl)-1-(4-(4-methyl-1H-pyrazol-1-yl)pyridin-3-yl)-N-(tetrahydro-2H-pyran-4-yl)piperidine-4-carboxamide], 79%.

(Values after patent US9643957B2, “Heterocyclic compounds having cholesterol 24-hydroxylase activity” (TAKEDA PHARMACEUTICAL COMPANY LIMITED, priority 2012, dated 2017).)
